Experiments:
[1] = tested on: MCF7 cells; experiment: Soft agar colony formation assay; format: cell-based; settings: MCF7, 12 μM, 10 days
[2] = tested on: breast cancers; settings: xenograft model and genetic model of breast cancers in mice; cited from earlier work
[3] = 50 mM DMSO stock diluted to 5 mg/ml in PBS
[4] = tested on: MCF7 cells; experiment: MCF7 cell permeability/availability assay; format: in vitro ADME; settings: for level of inhibitor detected in cells: 6 hours
[5] = target: T1, SIRT3 (Homo sapiens, UniProt Q9NTG7); experiment: SIRT3 deacetylase inhibition assay; format: biochemical
T1 sequence (Q9NTG7 1-399): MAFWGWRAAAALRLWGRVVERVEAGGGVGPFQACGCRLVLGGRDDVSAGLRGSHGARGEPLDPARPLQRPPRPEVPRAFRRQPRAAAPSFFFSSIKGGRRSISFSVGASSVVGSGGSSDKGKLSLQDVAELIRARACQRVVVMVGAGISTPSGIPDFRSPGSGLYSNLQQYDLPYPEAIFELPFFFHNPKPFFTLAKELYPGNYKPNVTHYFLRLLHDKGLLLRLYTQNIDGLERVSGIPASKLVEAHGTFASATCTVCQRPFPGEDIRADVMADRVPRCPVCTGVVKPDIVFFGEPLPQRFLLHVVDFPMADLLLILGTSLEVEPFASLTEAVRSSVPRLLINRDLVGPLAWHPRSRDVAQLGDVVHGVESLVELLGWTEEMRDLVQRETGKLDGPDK

[6] = tested on: various cancer cell lines; settings: breast, pancreatic, colon, lung and many more; cited from earlier work

- solubility in PBS (precipitation) [3]: white precipitation formed instantly
- level of inhibitor detected in cells ([4]; MCF7, 25 μM): about 0.29 μg/million cells
- level of inhibitor detected in cells ([4]; MCF7, 50 μM): ~0.30 μg/million cells
- compound detected in treated cells ([4]; MCF7 cells treated 6 hours, LC-MS): approximately 0.30 μg/million cells
- SIRT3 inhibition at 83 μM [5]: did not inhibit
SMILES: CCCCCCCCCCCCCC(=S)NCCCCC(NC(=O)OCc1ccccc1)C(=O)Nc1ccccc1 (centres unmarked) [TM]
- colony formation in soft agar [1]: formed many colonies
- tumor growth [2]: inhibited tumor growth
- cytotoxicity in cancer cell lines [6]: cytotoxic
